In patent US11633377B2, “Treatment of circadian rhythm disorders” (Vanda Pharmaceuticals Inc., priority 2012, dated 2023):
Read-outs that look alike come from different tables or passages of the source.

Legend:
[1] = Effect of fluvoxamine co-administration on tasimelteon pharmacokinetics; assay type: in vivo, human
Method: Twenty-four healthy male or female subjects between the ages of 18 and 55 years of age (inclusive) who were non-smokers with a body mass index (BMI) of 18 and 35 kg/m2 participated in this open-label, single-sequence study conducted at one site. On day 1, subjects were administered 5.667 mg of tasimelteon.

[2] = system: Non-24 patients; test: Entrainment by baseline peak aMT6s and beta blocker status (clinical studies); assay type: in vivo, human
Method: Results of clinicalstudy also show a strong correlation between endogenous melatonin and efficacy of tasimelteon in entraining patients to a 24 hour circadian rhythm. The following table (Table 3A) compares the peak aMT6s levels in the 24 entrained and 23 non-entrained patients.
Data from these studies currently available also indicate that beta blocker therapy is […] related to efficacy of tasimelteon, i.e., patients receiving beta blocker therapy were less likely to become entrained than patients who were not.

[3] = system: blind individuals with Non-24; test: RESET Study: randomized withdrawal study, maintenance of effect in Non-24; assay type: in vivo, human
Method: Patients were treated with tasimelteon for at least twelve weeks during an open-label run-in phase during the SET Study. Patients who responded to tasimelteon treatment during the run-in phase were then randomized to receive either placebo or tasimelteon (20 mg/day) for 2 months.
The primary endpoint of the RESET Study was the maintenance of effect as measured by entrainment of the melatonin (aMT6s) rhythm.
The RESET study also assessed a number of secondary endpoints including maintenance of entrainment of the cortisol rhythm and a range of sleep and wake parameters including LQ-nTST (total nighttime sleep in the worst 25% of nights), UQ-dTSD (total daytime sleep duration in the worst 25% of days) and MoST (midpoint of sleep timing from both nighttime and daytime sleep).

[4] = system: patients with Non-24; test: SET Study: Phase III randomized, double-masked, placebo-controlled study in Non-24; assay type: in vivo, human
Method: Specifically, patients were orally administered 20 mg tasimelteon per day for at least 12 weeks prior to re-estimating tau. Patients were selected for randomization or open label based on baseline tau estimates. Drug was administered at about 1 hour prior to target sleep time, as determined by patients based on a 9 hour nighttime sleep period.
The SET study was an 84 patient randomized, double-masked, placebo-controlled study in patients with Non-24. The primary endpoints for this study were Entrainment of the melatonin (aMT6s) rhythm to the 24-hour clock and Clinical Response as measured by Entrainment plus a score of greater than or equal to 3 on the following N24CRS:
The SET study also assessed a number of secondary endpoints including Entrainment of cortisol rhythm and a broad range of clinical sleep and wake parameters. These parameters included improvement in the total nighttime sleep in the worst 25% of nights (LQ-nTST), decrease in the total daytime sleep duration in the worst 25% of days (UQ-dTSD) and midpoint of sleep timing (MoST) which is derived from a combination of the sleep reported for both nighttime and daytime. CGI-C is a seven-point rating scale of global functioning with lower scores indicating larger improvements.

[5] = tmax after administration; assay type: in vivo, human; conditions: tasimelteon
[6] = Solubility and pH of saturated solution; assay type: physicochemical
[7] = target: T1, Mel1b (MT2R) (Homo sapiens, UniProt P49286); test: Affinity (Ki) for melatonin receptor MT2R; assay type: binding; conditions: MT2R vs MT1R
T1 sequence (P49286 1-362): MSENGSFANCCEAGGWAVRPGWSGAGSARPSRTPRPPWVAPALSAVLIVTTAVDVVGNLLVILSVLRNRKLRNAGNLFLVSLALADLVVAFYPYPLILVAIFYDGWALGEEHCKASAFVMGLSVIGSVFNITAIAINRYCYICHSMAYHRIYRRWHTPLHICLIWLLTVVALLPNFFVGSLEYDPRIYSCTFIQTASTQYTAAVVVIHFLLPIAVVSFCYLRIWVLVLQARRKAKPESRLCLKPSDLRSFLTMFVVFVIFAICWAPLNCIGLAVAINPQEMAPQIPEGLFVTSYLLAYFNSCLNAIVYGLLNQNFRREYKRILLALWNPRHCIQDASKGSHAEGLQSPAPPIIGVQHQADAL

[8] = Effect of smoking on concentration of tasimelteon and metabolites; assay type: in vivo, human
Excerpt: Smokers were defined as those smoking 10 or more cigarettes per day. Non-smokers were defined as those smoking no cigarettes per day.

[9] = Day 8 (with fluvoxamine) vs Day 1
[10] = fluvoxamine + tasimelteon vs tasimelteon alone
[11] = Day 1: 5.667 mg tasimelteon alone
[12] = Day 8: 5.667 mg tasimelteon + 50 mg fluvoxamine

For CCC(=O)NC[C@@H]1C[C@H]1c1cccc2c1CCO2 (relative stereo) [Tasimelteon, trans-N-[[2-(2,3-dihydrobenzofuran-4-yl)cycloprop-1yl]methyl]propanamide], the “Geometric Mean Ratio, AUC” value [1, 9] was 653.36%, the “Geometric Mean Ratio, CL/F” value [1, 9] was 15.31% and the “Geometric Mean Ratio, Cmax” value [1, 9] was 232.74%. For the same compound, the “Geometric Mean Ratio, t1/2” value [1, 9] was 211.82%, the AUC ([1]; both sexes, human, in vivo, Day 1: 5.667 mg tasimelteon alone) was 102 ± 61.5 ng·h/mL and the “AUC)-inf increase upon co-administration of fluvoxamine” value [1, 10] was “approximately 7 fold”. For the same compound, the “Cmax increase upon co-administration of fluvoxamine” value [1, 10] was “approximately 2 fold”, the “Entrained, number of patients” value [2] was 13 and the “Non-entrained, number of patients” value [2] was 21. The “Entrained, % of patients” value ([2]; Peak aMT6s <1500 ng/hr) was 41%, the “Entrained, number of patients” value ([2]; Peak aMT6s <1500 ng/hr) was 12 and the “Non-entrained, % of patients” value ([2]; Peak aMT6s <1500 ng/hr) was 59%. For the same compound, the “Non-entrained, number of patients” value ([2]; Peak aMT6s <1500 ng/hr) was 17, the “Entrained, % of patients” value ([2]; Peak aMT6s <12000 ng/hr) was 38% and the “Non-entrained, % of patients” value ([2]; Peak aMT6s <12000 ng/hr) was 62%. For the same compound, the “Entrained, % of patients” value ([2]; Peak aMT6s >1500 ng/hr) was 67%, the “Entrained, number of patients” value ([2]; Peak aMT6s >1500 ng/hr) was 12 and the “Non-entrained, % of patients” value ([2]; Peak aMT6s >1500 ng/hr) was 33%. For the same compound, the “Non-entrained, number of patients” value ([2]; Peak aMT6s >1500 ng/hr) was 6, the “Entrained, % of patients” value ([2]; Peak aMT6s >2000 ng/hr) was 85% and the “Entrained, number of patients” value ([2]; Peak aMT6s >2000 ng/hr) was 11. For the same compound, the “Non-entrained, % of patients” value ([2]; Peak aMT6s >2000 ng/hr) was 15%, the “Non-entrained, number of patients” value ([2]; Peak aMT6s >2000 ng/hr) was 2 and the “Entrained, % of patients” value ([2]; Peak aMT6s All) was 51%. For the same compound, the “Entrained, number of patients” value ([2]; Peak aMT6s All) was 24, the “Non-entrained, % of patients” value ([2]; Peak aMT6s All) was 49% and the “Non-entrained, number of patients” value ([2]; Peak aMT6s All) was 23. The “Entrained, number of patients” value ([2]; Taking Beta Blocker: No) was 24, the “Non-entrained, number of patients” value ([2]; Taking Beta Blocker: No) was 19 and the “Entrained, number of patients” value ([2]; Taking Beta Blocker: Yes) was 0. The “Non-entrained, number of patients” value ([2]; Taking Beta Blocker: Yes) was 4, the “time to relapse analysis” value ([3]; 45 min decrement of weekly average nighttime sleep, P=0.0907) was “placebo treated patients relapsed in higher numbers and at an earlier time than tasimelteon treated patients” and the “Maintenance of entrainment (aMT6s)” value ([3]; RESET, 20 mg/day) was 90.0%. The “maintenance of entrainment (cortisol)” value ([3]; RESET, 20 mg/day) was 80.0%, the “MoST (LS mean minutes), Difference” value ([3]; RESET, tasimelteon vs placebo) was 36.0 min and the “maintenance of entrainment (cortisol), Difference” value ([3]; RESET, tasimelteon vs placebo) was 60.0%. For the same compound, the “Clinical Response 2 (Entrainment + N24CRS >=2)” value ([4]; 20 mg/day oral) was 28.9%, the “Entrainment (aMT6s)” value ([4]; 20 mg/day oral) was 20.0% and the “LQ-nTST (LS mean minutes)” value ([4]; LS mean) was 57.0 min. The “CGI-C (LS mean minutes)” value ([4]; LS mean, smaller numbers indicate improvement) was 2.6 min, the “LQ-nTST and UQ-dTSD >=90 mm” value ([4]; only subjects with significant sleep and nap problems at baseline) was 23.8% and the tmax [5] was “approximately one-half”. The “native pH of a saturated solution in water” value [6] was 8.5, the “greater affinity for MT2R relative to MT1R” value [7] was 2-4 times and the CL/F ([8]; Non-Smokers) was 1,482 ± 1,008 mL/mm. The CL/F ([8]; Smokers) was 2,290 ± 1,232 mL/mm, the “Geometric Mean Ratio, AUC (inf)” value ([8]; Smokers vs Non-Smokers) was 60.14% and the “Geometric Mean Ratio, CL/F” value ([8]; Smokers vs Non-Smokers) was 166.27%. For the same compound, the “Geometric Mean Ratio, Cmax” value ([8]; Smokers vs Non-Smokers) was 63.98%, the “Geometric Mean Ratio, Vz/F” value ([8]; Smokers vs Non-Smokers) was 144.39% and the “Geometric Mean Ratio, t1/2” value ([8]; Smokers vs Non-Smokers) was 86.84%.
With CCC(=O)NCC1CC1c1cccc2c1C(O)CO2 (stereo not shown) [M14] the “AUC (ml)” value [1, 11] was 4.54 ± 2.39 ng·h/mL, the “Geometric Mean Ratio, AUC” value [1, 9] was 944.73% and the “Geometric Mean Ratio, Cmax” value [1, 9] was 264.58%. For the same compound, the “Geometric Mean Ratio, t1/2” value [1, 9] was 243.34%, the “AUC (ml)” value [1, 12] was 42.6 ± 27.3 ng·h/mL and the “Geometric Mean Ratio, AUC (inf)” value ([8]; Smokers vs Non-Smokers) was 42.98%. For the same compound, the “Geometric Mean Ratio, Cmax” value ([8]; Smokers vs Non-Smokers) was 60.17% and the “Geometric Mean Ratio, t1/2” value ([8]; Smokers vs Non-Smokers) was 65.09%.
In the case of CCC(=O)NCC1CC1c1cccc2c1C(O)CO2 (stereo not shown) [M12], the “AUC (ml)” value [1, 11] is reported as 189 ± 90.8 ng·h/mL, the “Geometric Mean Ratio, AUC” value [1, 9] is reported as 274.81% and the “Geometric Mean Ratio, Cmax” value [1, 9] is reported as 92.74%. For the same compound, the “Geometric Mean Ratio, t1/2” value [1, 9] was 241.02%, the “AUC (ml)” value [1, 12] was 435 ± 109.3 ng·h/mL and the “Geometric Mean Ratio, AUC (inf)” value ([8]; Smokers vs Non-Smokers) was 84.87%. The “Geometric Mean Ratio, Cmax” value ([8]; Smokers vs Non-Smokers) was 115.53% and the “Geometric Mean Ratio, t1/2” value ([8]; Smokers vs Non-Smokers) was 73.31%.
